Measurements reported in PubChem BioAssay (NCI).
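Tested at 5 concentrations; 48 h exposure; 96-well plates; endpoints linearly interpolated, else capped at highest concentration. Definition used: TGI = concentration required for complete inhibition of growth.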

Key:
Test in all cases: NCI anticancer screen, dose series, 48 h
[1] = system: NCI-H23 lung
[2] = system: SW-620 colon
[3] = system: 786-0 renal
[4] = system: SNB-78 CNS
[5] = system: DMS 114 small cell lung
[6] = system: DMS 273 small cell lung
[7] = system: CCRF-CEM leukemia
[8] = system: A549 NSCLC
[9] = system: SK-MEL-28 melanoma
[10] = system: COLO 205 colon
[11] = system: DLD-1 colon
[12] = system: TK-10 renal
[13] = system: HCT-116 colon
[14] = system: SF-295 CNS
[15] = system: CAKI-1 renal
[16] = system: HCT-15 colon
[17] = system: EKVX NSCLC
[18] = system: MALME-3M melanoma
[19] = system: HOP-18 NSCLC
[20] = system: SN12C renal
[21] = system: NCI-H522 lung
[22] = system: M14 melanoma
[23] = system: UO-31 renal
[24] = system: NCI-H226 lung
[25] = system: U251 CNS
[26] = system: SK-OV-3 ovarian
[27] = system: LXFL 529 NSCLC
[28] = system: OVCAR-8 ovarian
[29] = system: HT29 colon
[30] = system: OVCAR-3 ovarian
[31] = system: IGROV1 ovarian
[32] = system: HOP-92 NSCLC
[33] = system: A498 renal
[34] = system: SK-MEL-5 melanoma
[35] = system: MOLT-4 leukemia
[36] = system: ACHN renal
[37] = system: UACC-257 melanoma
[38] = system: KM12 colon
[39] = system: RPMI-8226 leukemia
[40] = system: LOX IMVI melanoma
[41] = system: SF-539 CNS
[42] = system: UACC-62 melanoma
[43] = system: K-562 leukemia
[44] = system: SNB-75 CNS
[45] = system: RXF 393 renal
[46] = system: HCC-2998 colon
[47] = system: SNB-19 CNS
[48] = system: HOP-62 NSCLC
[49] = system: XF 498 CNS
[50] = system: KM20L2 colon
[51] = system: OVCAR-5 ovarian
[52] = system: M19-MEL melanoma
[53] = system: SF-268 CNS
[54] = system: HL-60(TB) leukemia
[55] = system: NCI-H460 lung
[56] = system: SK-MEL-2 melanoma
[57] = system: SR leukemia
[58] = system: OVCAR-4 ovarian

COC1=CC2(C=CC1=O)c1cc(OC)c(OC)cc1CCN2C(=O)c1ccccc1 (centres undefined)
TGI [1]: > 100 µM
TGI [2]: > 100 µM
TGI [3]: > 100 µM
TGI [4]: > 100 µM
TGI [5]: > 100 µM
TGI [6]: > 100 µM
TGI [7]: > 100 µM
TGI [8]: > 100 µM
TGI [9]: > 100 µM
TGI [10]: > 100 µM
TGI [11]: > 100 µM
TGI [12]: > 100 µM
TGI [13]: > 100 µM
TGI [14]: > 100 µM
TGI [15]: > 100 µM
TGI [16]: > 100 µM
TGI [17]: > 100 µM
TGI [18]: > 100 µM
TGI [19]: > 100 µM
TGI [20]: > 100 µM
TGI [21]: > 100 µM
TGI [22]: > 100 µM
TGI [23]: > 100 µM
TGI [24]: > 100 µM
TGI [25]: > 100 µM
TGI [26]: > 100 µM
TGI [27]: > 100 µM
TGI [28]: > 100 µM
TGI [29]: > 100 µM
TGI [30]: > 100 µM
TGI [31]: > 100 µM
TGI [32]: > 100 µM
TGI [33]: > 100 µM
TGI [34]: > 100 µM
TGI [35]: > 100 µM
TGI [36]: > 100 µM
TGI [37]: > 100 µM
TGI [38]: > 100 µM
TGI [39]: > 100 µM
TGI [40]: > 100 µM
TGI [41]: > 100 µM
TGI [42]: > 100 µM
TGI [43]: > 100 µM
TGI [44]: > 100 µM
TGI [45]: > 100 µM
TGI [46]: > 100 µM
TGI [47]: > 100 µM

CCCS(=O)(=O)/C(=C(\c1ccc(Br)cc1)S(=O)(=O)CCC)c1ccc(Br)cc1
TGI [1]: > 10 µM
TGI [48]: > 10 µM
TGI [2]: > 10 µM
TGI [3]: > 10 µM
TGI [4]: > 10 µM
TGI [6]: > 10 µM
TGI [7]: > 10 µM
TGI [8]: > 10 µM
TGI [9]: > 10 µM
TGI [49]: > 10 µM
TGI [10]: > 10 µM
TGI [50]: > 10 µM
TGI [11]: > 10 µM
TGI [12]: > 10 µM
TGI [13]: > 10 µM
TGI [51]: > 10 µM
TGI [14]: > 10 µM
TGI [15]: > 10 µM
TGI [16]: > 10 µM
TGI [17]: > 10 µM
TGI [18]: > 10 µM
TGI [19]: > 10 µM
TGI [20]: > 10 µM
TGI [21]: > 10 µM
TGI [22]: > 10 µM
TGI [23]: > 10 µM
TGI [24]: > 10 µM
TGI [52]: > 10 µM
TGI [25]: > 10 µM
TGI [26]: > 10 µM
TGI [27]: > 10 µM
TGI [53]: > 10 µM
TGI [54]: > 10 µM
TGI [28]: > 10 µM
TGI [29]: > 10 µM
TGI [30]: > 10 µM
TGI [31]: > 10 µM
TGI [32]: > 10 µM
TGI [33]: > 10 µM
TGI [34]: > 10 µM
TGI [35]: > 10 µM
TGI [36]: > 10 µM
TGI [37]: > 10 µM
TGI [38]: > 10 µM
TGI [39]: > 10 µM
TGI [55]: > 10 µM
TGI [40]: > 10 µM
TGI [56]: > 10 µM
TGI [41]: > 10 µM
TGI [42]: > 10 µM
TGI [57]: > 10 µM
TGI [58]: > 10 µM
TGI [43]: > 10 µM
TGI [44]: > 10 µM
TGI [45]: > 10 µM
TGI [46]: > 10 µM
TGI [47]: > 10 µM
